{
  "source": "patent US9975870B2",
  "about": "“5,6-dimethoxy-1,1-dioxobenzo[b]thiophene-2-methyloxycarbonyl (DM-Bsmoc) and related amino-protecting groups” (MASSACHUSETTS, UNIVERSITY OF, priority 2013, dated 2018)",
  "data": [
    {"test": "Deblocking of substituted Bsmoc p-chloroaniline (R-Bsmoc-PCA) urethanes with piperidine, 1H-NMR monitoring", "format": "physicochemical", "details": "2 eq piperidine in CDCl3, 1H-NMR analysis; approximate values", "source_text": "(§1) As an electron-withdrawing substituent the MeSO2 group also enhances the stability of the benzo[b]thiophene-2-methyl system toward acidic reagents and in addition enhances the speed of the deblocking step. […] Tables 1A and 1B show the approximate half times for the reaction of substituted Bsmoc p-chloroaniline derivatives with 2 eq of piperidine in CDCl3 according to ^1H-NMR analysis.\n(§2) Tables 1A and 1B. Approximate half times for the reaction of R-Bsmoc-PCA urethane and piperidine", "units": {"t1/2 2 eq piperidine in CDCl3 (approximate half time for the reaction of R-Bsmoc-PCA urethane and piperidine)": "min"}, "values": [
      {"molecule": "O=C(Nc1ccc(Cl)cc1)OCC1=Cc2cc(Cl)ccc2S1(=O)=O", "note": "[5-Cl-Bsmoc-PCA]", "t1/2 2 eq piperidine in CDCl3 (approximate half time for the reaction of R-Bsmoc-PCA urethane and piperidine)": 2},
      {"molecule": "CC1=C(COC(=O)Nc2ccc(Cl)cc2)S(=O)(=O)c2ccccc21", "note": "[3-Me-Bsmoc-PCA]", "t1/2 2 eq piperidine in CDCl3 (approximate half time for the reaction of R-Bsmoc-PCA urethane and piperidine)": 360},
      {"molecule": "O=C(Nc1ccc(Cl)cc1)OCC1=Cc2ccccc2S1(=O)=O", "note": "[Bsmoc-PCA, reference compound]", "t1/2 2 eq piperidine in CDCl3 (approximate half time for the reaction of R-Bsmoc-PCA urethane and piperidine)": "6 to 7"},
      {"molecule": "Cc1cccc2c1C=C(COC(=O)Nc1ccc(Cl)cc1)S2(=O)=O", "note": "[4-Me-Bsmoc-PCA]", "t1/2 2 eq piperidine in CDCl3 (approximate half time for the reaction of R-Bsmoc-PCA urethane and piperidine)": 150},
      {"molecule": "COc1cc2c(cc1OC)S(=O)(=O)C(COC(=O)Nc1ccc(Cl)cc1)=C2", "note": "[5,6-MeO-Bsmoc-PCA]", "t1/2 2 eq piperidine in CDCl3 (approximate half time for the reaction of R-Bsmoc-PCA urethane and piperidine)": "3 to 4"},
      {"molecule": "Cc1ccc2c(c1)C=C(COC(=O)Nc1ccc(Cl)cc1)S2(=O)=O", "note": "[5-Me-Bsmoc-PCA]", "t1/2 2 eq piperidine in CDCl3 (approximate half time for the reaction of R-Bsmoc-PCA urethane and piperidine)": "6 to 7"},
      {"molecule": "CC(=O)Nc1ccc2c(c1)C=C(COC(=O)Nc1ccc(Cl)cc1)S2(=O)=O", "note": "[5-Ac—NH-Bsmoc-PCA]", "t1/2 2 eq piperidine in CDCl3 (approximate half time for the reaction of R-Bsmoc-PCA urethane and piperidine)": 3},
      {"molecule": "CS(=O)(=O)c1ccc2c(c1)C=C(COC(=O)Nc1ccc(Cl)cc1)S2(=O)=O", "note": "[5-MeSO2-Bsmoc-PCA]", "t1/2 2 eq piperidine in CDCl3 (approximate half time for the reaction of R-Bsmoc-PCA urethane and piperidine)": "<1"},
      {"molecule": "CS(=O)(=O)c1ccc2c(c1)S(=O)(=O)C(COC(=O)Nc1ccc(Cl)cc1)=C2", "note": "[6-MeSO2-Bsmoc-PCA]", "t1/2 2 eq piperidine in CDCl3 (approximate half time for the reaction of R-Bsmoc-PCA urethane and piperidine)": "<1"},
      {"molecule": "O=C(Nc1ccc(Cl)cc1)OCC1=Cc2ccc(Cl)cc2S1(=O)=O", "note": "[6-Cl-Bsmoc-PCA]", "t1/2 2 eq piperidine in CDCl3 (approximate half time for the reaction of R-Bsmoc-PCA urethane and piperidine)": 2},
      {"molecule": "O=C(Nc1ccc(Cl)cc1)OCC1=Cc2cc([N+](=O)[O-])ccc2S1(=O)=O", "note": "[5-NO2-Bsmoc-PCA]", "t1/2 2 eq piperidine in CDCl3 (approximate half time for the reaction of R-Bsmoc-PCA urethane and piperidine)": "<1"}
    ]},
    {"test": "Deblocking of substituted Bsmoc p-chloroaniline (R-Bsmoc-PCA) urethanes with piperidine, 1H-NMR monitoring", "format": "physicochemical", "details": "treatment with piperidine in CDCl3, NMR monitoring", "source_text": "as §1, §2", "values": [
      {"molecule": "CS(=O)(=O)c1ccc2c(c1)C=C(COC(=O)Nc1ccc(Cl)cc1)S2(=O)=O", "note": "[5-MeSO2-Bsmoc-PCA]", "speed of deblocking relative to the unsubstituted analog (Bsmoc-NHC6H4-Cl-p)": "about six times more readily"}
    ]}
  ]
}
